Data on one molecule can be found in patent US5491151A, “Antitumor treatment method” (Kabushiki Kaisha Hayashibara Seibutsu Kagaku Kenkyujo, priority 1989, dated 1996).

Some results are limits rather than exact numbers.

In data set [1] the test system is macrophage. Kind of data set: Activation of macrophage by cyanine dye (adherent ascites cells of treated mice cultured with Meth A ascitic tumor cells, 3H-thymidine incorporation). The format is cell-based, BALB/c mice. Particulars: 50 ng/0.2 ml/animal intraperitoneal to mice, cells collected two days later. How it is done:
Two days after the administration, the ascites of the mice were extracted, and the cells which adhered onto plastic Petri dish were collected.
Control group was intraperitoneally administered with 0.2 ml saline.
Thereafter, the incorporation of ^3 H-thymidine in the tumor cell was determined by conventional method, and the growth inhibitory rate for tumor (%) was calculated with the following equation.

Data set [2] deals with ddy mice. As to the kind of experiment: Acute toxicity (LD50). The format is in vivo. Particulars: 7 days. The procedure:
Either of Compounds No.1-8 in Table I was dissolved or suspended in saline containing 5% gum arabic, and a group of ddy mice, about 10-20 g each, received an intraperitoneal or oral administration of the resultant mixture occasionally through a stomach tube, followed by monitoring and counting dead mice for an additional 7 days to determine respective LD50 value in accordance with the Van der Waerden's method.

Take `CCN1C=CC(=CC=C(C=Cc2cc[n+](CC)c3ccccc23)c2cc[n+](CC)c3ccccc23)c2ccccc21` [compound 5]: the “Growth inhibitory rate (%)” value in data set [1] is listed as 27.5%. In addition, the LD50 in data set [2] (intraperitoneal administration, 10080 min) is reported as 28 mg/kg body weight; in data set [2] (oral administration) it was no less than 4.0 g/kg body weight.
